# The supplement of paper PMC4954754
# ± gives the uncertainty stated by the source.
# How the values were obtained:
# Details in all cases: 18 h
# HEK293T-Rex XBP1-RLuc [1] = test: maximal XBP1-RLuc activation from dose-response fit, relative to thapsigargin (% of thapsigargin); higher = stronger activation
# Protocol: (§1)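 Dose-response of hit compounds in HEK293T-Rex cells stably expressing ERSE-FLuc or XBP1-RLuc reporters, 18 hr treatment, 1536-well; luminescence normalised to 500 nM thapsigargin (100%) and DMSO (0%), fitted to give EC50 (M) and maximal activation; '>' marks EC50 above the top tested dose (~17 µM).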
# HEK293T-Rex ERSE-FLuc [2] = test: maximal ERSE-FLuc activation from dose-response fit, relative to thapsigargin (% of thapsigargin); higher = stronger activation
# Protocol: as §1
# HEK293T-Rex XBP1-RLuc [3] = test: EC50 for XBP1-RLuc reporter activation
# Protocol: as §1
# HEK293T-Rex ERSE-FLuc [4] = test: EC50 for ERSE-FLuc reporter activation
# Protocol: as §1
SMILES,maximal XBP1-RLuc activation (HEK293T-Rex XBP1-RLuc [1]),maximal ERSE-FLuc activation (HEK293T-Rex ERSE-FLuc [2]),EC50 for XBP1-RLuc reporter activation (HEK293T-Rex XBP1-RLuc [3]) [µM],EC50 for ERSE-FLuc reporter activation (HEK293T-Rex ERSE-FLuc [4]) [µM]
CCOc1ccc(NC(=O)c2cccc(F)c2)c([N+](=O)[O-])c1,2.67 ± 1.8,26.4 ± 1.6,> 14.3,> 14.3
COc1cccc(C(=O)/C=C/Nc2cc(C)ccc2O)c1,72.5 ± 3.2,229 ± 0.77,6.99,4
COc1ccccc1-c1cc(C(=O)Nc2cc(C)ccc2O)no1,18 ± 2.5,25.7 ± 7.9,> 16.9,> 16.9
CNc1ccc2oc(C[C@H]3O[C@@]4(CC[C@H]3C)O[C@H]([C@H](C)C(=O)c3ccc[nH]3)[C@H](C)C[C@H]4C)nc2c1C(=O)O,91.4 ± 5.9,56.9 ± 16,4.49,2.39
CCc1cc2c(=O)c(-c3ccc4c(c3)OCCO4)coc2cc1OC,14.1 ± 1.5,31.2 ± 5.7,> 15,> 15
NN1C(=O)/C(=C/c2ccc(O)c(O)c2)SC1=S,33.2 ± 4.3,53.7 ± 2.2,> 16.9,11.7
COc1cccc(/C=N/NC(=O)c2n[nH]c3c2CCCC3)c1,3.95 ± 0.69,29.6 ± 6.7,> 16.9,> 16.9
Cc1ccc(O)c(NC(=O)CCc2ccccc2)c1,26.1 ± 0.67,107 ± 12,> 16.9,4.16
Oc1ccc(-c2csc(-c3cccnc3)n2)cc1O,80.1 ± 5.1,71.5 ± 11,12.8,7.5
O=C(NCCc1ccc(O)cc1)c1ccc2nc(-c3csc4ccccc34)sc2c1,105 ± 13,99.4 ± 20,13.3,11.6
O=C(/C=C/c1ccccc1)Nc1ccc(Br)cn1,4.36 ± 3.2,26.2 ± 3.8,> 13.7,> 13.7
Cc1ccc(O)c(-c2cc(C(F)(F)C(F)F)no2)c1,23.6 ± 5.9,79.8 ± 24,> 16.7,7.56
Cc1ccc2nc(/C(C#N)=C/c3ccc(O)c(O)c3)[nH]c2c1,19.7 ± 5.9,23.4 ± 2.9,> 16.9,> 16.9
Cc1ccc(Nc2nc(N)c3ccccc3n2)cc1Cl,48.1 ± 5.2,111 ± 7.9,> 16.9,10
C=CCNC(=O)c1cc(-c2ccccc2)on1,10.7 ± 4.1,99.6 ± 17,> 16.9,7.45
CS(=O)(=O)c1ncc(Cl)c(C(=O)C(C#N)c2nc3ccccc3s2)n1 (stereo not drawn),266 ± 8.4,73.2 ± 8.2,3.99,2.49
O=C(CCc1ccccc1)Nc1ccc(Cl)cn1,5.24 ± 0.68,26.1 ± 2.5,> 17.7,> 17.7
CN(C)c1ccc(C(=NO)c2ccc(N(C)C)cc2)cc1,7.51 ± 2.8,21.7 ± 4.1,> 17.1,> 17.1
O=C(COC(=O)c1ccc(O)c(O)c1)Nc1nc(-c2ccccc2)cs1,53.4 ± 3.6,36.1 ± 4.4,16.8,> 18.2
O=C(N/N=C/c1ccc(Cl)cc1)c1n[nH]c2c1CCCC2,6.88 ± 3.1,21.7 ± 1.7,> 16.9,> 16.9
C=CCNC(=O)c1cc(-c2cccs2)on1,12.8 ± 0.79,124 ± 2.7,> 16.9,5.28

SMILES,maximal XBP1-RLuc activation (HEK293T-Rex XBP1-RLuc [1]),maximal ERSE-FLuc activation (HEK293T-Rex ERSE-FLuc [2]),EC50 for XBP1-RLuc reporter activation (HEK293T-Rex XBP1-RLuc [3]) [µM],EC50 for ERSE-FLuc reporter activation (HEK293T-Rex ERSE-FLuc [4]) [µM]
CN(C)c1ccc(C2C(C#N)=C(N)Oc3c2sc2ccccc32)cc1[N+](=O)[O-] (stereo not drawn),4.37 ± 1,15.8 ± 4.9,> 17.2,> 17.2
N#C/C(=C/c1ccc(O)c(O)c1)c1nc2ccccc2s1,27.5 ± 2.7,38.1 ± 2.2,> 16.9,> 16.9
CN(c1ccccc1)S(=O)(=O)c1cccc(C(=O)NCCc2ccc(O)c(O)c2)c1,125.1 ± 1,202 ± 34,8.35,6.56
O=[N+]([O-])c1ccc(/C=C/c2ccc(O)cc2)cc1,53.3 ± 4.7,25.8 ± 4.6,12.4,> 15.3
COc1c(O)cc2oc(-c3ccc(O)c(O)c3)cc(=O)c2c1O,57.9 ± 2.8,129 ± 3.5,8.02,3.69
COc1ccc(/C(C)=N/OC/C(O)=C(\C#N)c2nc3ccccc3[nH]2)cc1OC,3.33 ± 0.88,5.39 ± 2.3,> 17.2,> 17.2
O=C(Nc1ccc(O)cc1)c1c(O)c2c([nH]c1=O)CCCC2,28.5 ± 3.6,22.3 ± 2.9,> 16.1,> 16.1
Cc1ccc(/C=N/NC(=O)c2cccc(F)c2)cc1,1.93 ± 2,23.1 ± 1.4,> 16.9,> 16.9
N#Cc1c(NC(=O)c2cnccn2)sc2c1CCCC2,4.67 ± 1.1,18.9 ± 4.8,> 17.9,> 17.9
CN(C)c1ccc(/C=N/NC(=O)c2cccc(Br)c2)cc1,2.34 ± 2,19.2 ± 4.8,> 16.9,> 16.9
Cc1ccc(O)c(N/C=C/C(=O)c2ccc(F)cc2)c1,84.1 ± 19,303 ± 13,11.9,3.31
Nc1c(C(=O)Nc2ccccc2)sc2nc3c(cc12)CCCCC3,15.7 ± 1.2,29.8 ± 4.8,> 16.5,> 16.5
CN(C)c1ccc(/C=C(/C#N)C(=O)Nc2ccc(O)cc2)cc1,31 ± 2.4,29.9 ± 4.7,> 16.9,> 16.9
O=C(N/N=C\c1ccccc1[N+](=O)[O-])c1[nH]nc2c1CCc1ccccc1-2,5.31 ± 2.3,23 ± 4.3,> 16.9,> 16.9
COc1cc(/C=C/c2ccc(O)c(OC)c2)ccc1O,72.3 ± 8.1,31.1 ± 6.9,8.73,> 16.9
Cc1ccc2nc(/C(C#N)=C\c3cc(Cl)cc4c3OCOC4)[nH]c2c1,3.21 ± 1.4,20.1 ± 3.4,> 16,> 16
Cc1cc2nc(/C(C#N)=C/c3ccco3)[nH]c2cc1C,2.69 ± 0.74,28 ± 8.7,> 16.9,> 16.9
O=C1NC(=Nc2ccccc2)S/C1=C/c1ccc(O)c(O)c1,38.5 ± 6.1,83.8 ± 12,> 15.4,6.2
O=C(/C=C/c1ccccc1)Nc1ccc(Cl)cn1,2.19 ± 0.65,22.1 ± 7,> 18.6,> 18.6
Cc1ccc(O)c(-c2cc(-c3ccc(F)cc3)n[nH]2)c1,17.2 ± 4,71.4 ± 16,> 19,10.5
N#C/C(=C(/O)c1cc(-c2ccccc2)nc2ccccc12)c1nc2ccccc2[nH]1,17.9 ± 1.4,24.8 ± 8.7,> 15.9,> 15.9
